Reference: US4894370A, “Compositions having fermentation analogs of virginiamycin M1 as active ingredient” (Merck & Co., Inc., priority 1988, dated 1990)

Columns and labels:
gram-positive bacteria = details: cited from earlier work
[1] = vs CCK-33; cited from earlier work
Pancreatic CCK Receptor = molecular target: T1, Pancreatic CCK Receptor (Rattus norvegicus, UniProt P30551); assay: Pancreatic Cholecystokinin Receptor Binding Assay (125I-CCK-8); details: added as protease inhibitors
T1 construct: Pancreatic receptor membranes were prepared by homogenzing a gram of fresh rat pancreas tissue; from tissue; host or cells: rat pancreas membranes
T1 sequence (P30551 1-444): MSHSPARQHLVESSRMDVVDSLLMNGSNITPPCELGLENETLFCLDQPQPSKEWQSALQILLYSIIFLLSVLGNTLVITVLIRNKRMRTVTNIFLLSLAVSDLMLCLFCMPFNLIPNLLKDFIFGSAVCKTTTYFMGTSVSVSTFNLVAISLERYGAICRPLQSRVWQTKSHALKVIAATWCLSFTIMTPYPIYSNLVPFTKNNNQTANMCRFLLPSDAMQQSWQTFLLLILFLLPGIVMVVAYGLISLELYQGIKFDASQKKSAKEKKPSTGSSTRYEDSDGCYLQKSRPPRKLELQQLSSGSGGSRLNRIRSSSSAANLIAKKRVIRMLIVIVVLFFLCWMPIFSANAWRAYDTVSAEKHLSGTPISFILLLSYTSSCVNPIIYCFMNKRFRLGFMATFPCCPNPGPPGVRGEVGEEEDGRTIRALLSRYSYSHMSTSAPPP
Method: Radiolabeled CCK-8 was purchased from New England Nullear as ^125 I-CCK-8. Receptor binding was performed according to Innis and Snyder Proc. Natl. Acad. Sci., 77, 6917 (1980), with the minor modification of adding the additional protease inhibitors, phenylmethane sulfonyl fluoride (PMSF) and o-phenanthroline, which have no effect on the ^125 I-CCK receptor binding assay. All assays were performed in triplicate. Pancreatic receptor membranes were prepared by homogenzing a gram of fresh rat pancreas tissue in 30 ml TRIS-HCl (50 mM), pH 7.7 using a Brinkman polytron PT10 (Brinkman). The homogenate was washed twice and collected by centrifugation at 48,000×g at 4° C. for 10 minutes. The membranes were resuspended in assay buffer consisting of 5 mM dithiothieitol, 0.1 mM bacitiacin, 5 mM MgCl2 ·H2 O, 0.2% heat denatured BSA, 1.2 mM PMSF and 0.5 mM O-phenanthroline at a concentration of 100 ml per gram of pancreas. […] The reaction mixtures were mixed briefly and placed in a 37° C. water bath with gentle shaking for 30 minutes. […] The filters were washed with 3×4 ml of the same buffer and the radioactivity associated with the filters was counted in a Beckman Gamma 5500 counter. […] The dried samples were then brought up in methanol/H2 O (1:1) and ready for assay.

gastric acid secretion = details: cited from earlier work

For `CC1=C\[C@@H](O)CC(=O)Cc2nc(co2)C(=O)N2CCC=C2C(=O)O[C@H](C(C)C)[C@H](C)/C=C/C(=O)NC\C=C\1` [Virginiamycin M1], the antibacterial specificity (gram-positive bacteria) is given as “generally specific for gram-positive bacteria”.
In the case of “C-terminal octapeptide: C-terminal octapeptide of CCK”, the “efficacy relative to CCK-33” value [1] is given as “same efficacy”.
For `c1cnc2c(c1)ccc1cccnc12` [o-phenanthroline], the “effect on the 125I-CCK receptor binding assay” value (Pancreatic CCK Receptor) was “no effect”.
For Gastrin-17, the “potency for stimulating gastric acid secretion relative to Gastrin-13” value (gastric acid secretion; vs Gastrin-13) is listed as 2.5 times more potent and the “potency for stimulating gastric acid secretion relative to Gastrin-34” value (gastric acid secretion; vs Gastrin-34) is listed as 5 times more potent.
For `O=S(=O)(F)Cc1ccccc1` [phenylmethane sulfonyl fluoride (PMSF), phenylmethane sulfonyl fluoride], the “effect on the 125I-CCK receptor binding assay” value (Pancreatic CCK Receptor) was “no effect”.
